Experimental data from PubChem BioAssay (NCI).
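Results reflect a 48-hour exposure of cells in 96-well plates to compound at five concentrations. GI50 marks 50% less growth. At the TGI there is no net growth.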

What was measured:
Assay in all cases: NCI tumour cell line growth inhibition, 48 h
[1] = system: IGROV1 ovarian
[2] = system: COLO 205 colon
[3] = system: HL-60(TB) leukemia
[4] = system: TK-10 renal
[5] = system: SK-MEL-5 melanoma
[6] = system: HOP-92 NSCLC
[7] = system: HCT-15 colon
[8] = system: SN12C renal
[9] = system: SF-539 CNS
[10] = system: SNB-75 CNS
[11] = system: SNB-19 CNS
[12] = system: NCI/ADR-RES ovarian
[13] = system: UO-31 renal
[14] = system: UACC-257 melanoma
[15] = system: OVCAR-4 ovarian
[16] = system: CAKI-1 renal
[17] = system: MALME-3M melanoma
[18] = system: HCC-2998 colon
[19] = system: DU-145 prostate
[20] = system: KM12 colon
[21] = system: HCT-116 colon
[22] = system: HT29 colon
[23] = system: RXF 393 renal
[24] = system: MDA-N
[25] = system: EKVX NSCLC
[26] = system: BT-549 breast
[27] = system: SF-295 CNS
[28] = system: ACHN renal
[29] = system: OVCAR-8 ovarian
[30] = system: NCI-H23 lung
[31] = system: SK-MEL-28 melanoma
[32] = system: NCI-H522 lung
[33] = system: RPMI-8226 leukemia
[34] = system: NCI-H226 lung
[35] = system: K-562 leukemia
[36] = system: CCRF-CEM leukemia
[37] = system: MDA-MB-231 breast
[38] = system: MDA-MB-435
[39] = system: OVCAR-5 ovarian
[40] = system: OVCAR-3 ovarian
[41] = system: NCI-H460 lung
[42] = system: PC-3 prostate
[43] = system: U251 CNS
[44] = system: A498 renal
[45] = system: 786-0 renal
[46] = system: MOLT-4 leukemia
[47] = system: HOP-62 NSCLC
[48] = system: MCF7 breast
[49] = system: LOX IMVI melanoma
[50] = system: SW-620 colon
[51] = system: SR leukemia
[52] = system: HS 578T breast
[53] = system: A549 NSCLC
[54] = system: SF-268 CNS
[55] = system: SK-OV-3 ovarian
[56] = system: SK-MEL-2 melanoma
[57] = system: UACC-62 melanoma
[58] = system: T-47D breast
[59] = system: M14 melanoma

O=C(Nc1nc(C23CC4CC(CC(C4)C2)C3)cs1)c1cc2ccccc2oc1=O
TGI [1]: > 100000 nM | TGI [2]: > 100000 nM | TGI [3]: > 100000 nM | TGI [4]: > 100000 nM | TGI [5]: > 100000 nM | TGI [6]: > 100000 nM | TGI [7]: > 100000 nM | TGI [8]: > 100000 nM | TGI [9]: > 100000 nM | TGI [10]: > 100000 nM | TGI [11]: > 100000 nM | TGI [12]: > 100000 nM | TGI [13]: > 100000 nM | TGI [14]: > 100000 nM | TGI [15]: > 100000 nM | TGI [16]: > 100000 nM | TGI [17]: > 100000 nM | TGI [18]: > 100000 nM | TGI [19]: > 100000 nM | TGI [20]: > 100000 nM | TGI [21]: > 100000 nM | TGI [22]: > 100000 nM | TGI [23]: > 100000 nM | TGI [24]: > 100000 nM | TGI [25]: > 100000 nM | TGI [26]: > 100000 nM | TGI [27]: > 100000 nM | TGI [28]: > 100000 nM | TGI [29]: > 100000 nM | TGI [30]: > 100000 nM | TGI [31]: > 100000 nM | TGI [32]: > 100000 nM | TGI [33]: > 100000 nM | TGI [34]: > 100000 nM | TGI [35]: > 100000 nM | TGI [36]: > 100000 nM | TGI [37]: > 100000 nM | TGI [38]: > 100000 nM | TGI [39]: > 100000 nM | TGI [40]: > 100000 nM | TGI [41]: > 100000 nM | TGI [42]: > 100000 nM | TGI [43]: > 100000 nM | TGI [44]: > 100000 nM | TGI [45]: > 100000 nM | TGI [46]: > 100000 nM | TGI [47]: > 100000 nM | TGI [48]: > 100000 nM | TGI [49]: > 100000 nM | TGI [50]: > 100000 nM | TGI [51]: > 100000 nM | TGI [52]: > 100000 nM | TGI [53]: > 100000 nM | TGI [54]: > 100000 nM

O=C1CCc2c(sc3[nH]c(=S)n(Cc4ccc(Cl)cc4)c(=O)c23)C1
GI50 [1]: 454 nM | TGI [1]: > 100000 nM | GI50 [2]: 1920 nM | TGI [2]: 3710 nM | GI50 [3]: 347 nM | TGI [3]: 1810 nM | GI50 [4]: 988 nM | TGI [4]: > 100000 nM | GI50 [5]: 362 nM | TGI [5]: 1130 nM | GI50 [6]: 196 nM | TGI [6]: 816 nM | GI50 [55]: 2860 nM | TGI [55]: 8920 nM | GI50 [7]: 347 nM | TGI [7]: 1640 nM | GI50 [8]: 384 nM | TGI [8]: > 84700 nM | GI50 [9]: 356 nM | TGI [9]: 1630 nM | GI50 [10]: 387 nM | TGI [10]: > 81400 nM | GI50 [11]: 385 nM | TGI [11]: > 100000 nM | GI50 [12]: 408 nM | TGI [12]: > 41800 nM | GI50 [13]: 277 nM | TGI [13]: 1210 nM | GI50 [14]: 1330 nM | TGI [14]: 5720 nM | GI50 [15]: 388 nM | TGI [15]: 28200 nM | GI50 [16]: 451 nM | GI50 [17]: 972 nM | TGI [17]: 3900 nM | GI50 [18]: 577 nM | TGI [18]: 2300 nM | GI50 [19]: 2470 nM | TGI [19]: > 100000 nM | GI50 [20]: 361 nM | TGI [20]: 1680 nM | GI50 [21]: 366 nM | TGI [21]: > 100000 nM | GI50 [22]: 3270 nM | TGI [22]: > 100000 nM | GI50 [23]: 401 nM | TGI [23]: 5050 nM | GI50 [56]: 2070 nM | TGI [56]: 6120 nM | GI50 [25]: 544 nM | TGI [25]: > 100000 nM | GI50 [26]: 363 nM | TGI [26]: 3030 nM | GI50 [27]: 863 nM | TGI [27]: 4680 nM | GI50 [28]: 465 nM | TGI [28]: 3630 nM | GI50 [29]: 468 nM | TGI [29]: > 100000 nM | GI50 [30]: 345 nM | TGI [30]: 2680 nM | GI50 [31]: 640 nM | TGI [31]: > 21100 nM | GI50 [32]: 340 nM | TGI [32]: 1680 nM | GI50 [33]: 383 nM | GI50 [34]: 1990 nM | TGI [34]: 14500 nM | GI50 [35]: 324 nM | TGI [35]: > 100000 nM | GI50 [36]: 479 nM | TGI [36]: > 100000 nM | GI50 [37]: 379 nM | TGI [37]: 1680 nM | GI50 [57]: 329 nM | TGI [57]: 1760 nM | GI50 [38]: 1440 nM | TGI [38]: 8330 nM | GI50 [39]: 743 nM | TGI [39]: 3600 nM | GI50 [40]: 385 nM | TGI [40]: > 55600 nM | GI50 [41]: 377 nM | TGI [41]: 3700 nM | GI50 [42]: 309 nM | TGI [42]: > 35800 nM | GI50 [43]: 377 nM | TGI [43]: 18000 nM | GI50 [44]: 1870 nM | TGI [44]: 7250 nM | GI50 [58]: 377 nM | TGI [58]: 3590 nM | GI50 [59]: 477 nM | TGI [59]: > 56300 nM | GI50 [45]: 1230 nM | TGI [45]: > 100000 nM | GI50 [46]: 1210 nM | TGI [46]: 17100 nM | GI50 [47]: 1470 nM | TGI [47]: > 100000 nM | GI50 [48]: 2220 nM | TGI [48]: > 38600 nM | GI50 [49]: 410 nM | TGI [49]: 5400 nM | GI50 [50]: 393 nM | TGI [50]: > 100000 nM | GI50 [51]: 562 nM | TGI [51]: > 45200 nM | GI50 [52]: 460 nM | TGI [52]: > 100000 nM | GI50 [53]: 497 nM | TGI [53]: 16600 nM | GI50 [54]: 442 nM | TGI [54]: > 100000 nM
